The text below walks through data of patent EP0578644B1, “ANTIBIOTIC A 40926 ESTER DERIVATIVES” (GRUPPO LEPETIT S.p.A., priority 1991, dated 1992).

Assay [1] deals with Streptococcus pyogenes C203. Briefly: mouse septicemia (in vivo test). The settings on record: CD-1 mice infected intraperitoneally; antibiotics administered subcutaneously immediately after infection; calculated on the 7th day from surviving animals (Spearman and Kaerber). The protocol:
In these in vivo tests control and treatment groups contained five CD-1 mice (Charles River) weighting 18-22 g. They were infected intraperitoneally with 0.5 ml of bacterial suspension prepared by diluting an overnight culture of Streptococcus pyogenes C203 with sterile peptonized saline. Inocula were adjusted so that untreated animals died of septicemia within 48 hours. Antibiotics were administered subcutaneously immediately after infection. On the 7th day, the ED50 in mg/kg was calculated by the method of Spearman and Kaerber (D.J. Finney, "Statistical Methods in Biological Assay", Griffin, page 524, 1952) from the percentages of surviving animals at each dose. The results of the in vivo testing of representative compounds of the invention are summmarized in Table II below: Table II

Assay [2] relates to coagulase-negative staphylococci. Put plainly: in vitro antibacterial activity (MIC, microbroth dilution). The assay is classed as cell-based. Conditions: compared with the parent compounds (X vs I and VIII vs VII). (Dilution methods test growth across graded concentrations, often in twofold steps.)

The term ED50 denotes the dose at which the effect has come halfway, by size or by number of responders. With “antibiotic A 40926 complex 6^B-monomethyl ester [compound I]”, the median effective dose (ED50) in assay [1] was 0.18 mg/kg.
On the same count and under the same terms, then `CN[C@H]1C(=O)N[C@@H]2Cc3ccc(cc3)Oc3cc4cc(c3O)Oc3ccc(cc3Cl)[C@@H](O)[C@@H]3NC(=O)[C@H](NC(=O)[C@@H]4NC(=O)[C@@H](NC2=O)c2cc(cc(O)c2Cl)Oc2cc1ccc2O)c1ccc(O)c(c1)-c1c(O)cc(O)cc1[C@@H](C(=O)O)NC3=O` [A 40926 aglycone, reference compound], with 6.2 mg/kg.
Regarding “Demannosyl A 40926 complex 6^B-(2-bromoethyl) ester [compound VIII]”, in assay [1], the ED50 is recorded as 0.31 mg/kg. Moreover, in assay [2], the “in vitro activity against coagulase-negative staphylococci” value is reported as “better in vitro activity”.
On the same counts, the results for “O^42-demannosyl A 40926 6^B-methyl ester [compound X]” are 0.31 mg/kg and “better in vitro activity”.
Consider “antibiotic A 40926 complex 6^B-(2-hydroxyethyl) ester [compound V]”, for which, in assay [1], the ED50 was 0.18 mg/kg.
On the same count and under the same terms, then “antibiotic A 40926 complex 6^B-monoethyl ester [compound II]”, with 0.23 mg/kg.
